Laboratory results published in patent US10457709B2, “Antimicrobial peptides, their variants and uses” (priority 2015, dated 2019).
Square brackets hold non-standard residues; d marks the D form. Ends that are not written are not given here. Peptide text beside a SMILES is read from it.

What was measured:
Format in all cases: cell-based, Staphylococcus aureus
[1] = system: MRSA strains (S. aureus COL); assay: MIC, synergistic activity with Ertapenem (4 μg/ml); conditions: S. aureus COL, synergistic activity with 4 μg/ml Ertapenem
Description: (§1) Minimum inhibition concentrations (MICs) were determined against Escherichia coli (ATCC 25922), Staphylococcus aureus (ATCC 25923), Klebsiella pneumoniae (ATCC 10031) and Pseudomonas aeruginosa (ATCC 27853). Also clinical strains of E. coli, K. pneumoniae, E. cloacae, P. aeruginosa, Serratia marcescens, Proteus mirabilis, S. pneumoniae, Acinetobacter baumannii, A. johnsonii and S. aureus were used for MICs assays. Additionally, clinical strains of yeast including Candida albicans, C. glabrata, C. parapsilosis and C. quillermondiae were used. The susceptibility of these microorganisms to Chain peptides were determined using micro broth dilution assay. Colonies of the respective microorganism from Muller Hinton (MH) agar plates incubated overnight were suspended in MH broth media and final concentration of microorganism was adjusted to 5.0×10^5 cfu/ml. An aliquot of 10 μl of each Chain peptide, or gentamicin, tetracycline as reference antibiotics were added in differing concentrations along with 90 μl of bacterial suspension to 96 well polypropylene plates and incubated at 37° C. for 20 to 24 hours. Concentrations of Chain peptides and reference antibiotics ranged from 0.125 to 128 μg/ml and the MICs were recorded as the lowest concentration with no visual growth of bacteria. Similarly, antifungal MICs were tested in Potato dextrose broth.
(§2) Peptides Chain 104, Chain 105, Chain 201, Chain 308, Chain 310 were tested against antibiotic-sensitive strains of S. aureus RN4220 and methicillin resistant strains of S. aureus COL (MRSA). Chain peptides comprising of either L- or D-form amino acids were tested against these bacteria, and the D-form peptides were found have better activity compared to L-form (Table 6). Synergistic activity of chain peptides along with Ertapenem (4 μg/ml) was tested to know whether it will influence the activity against MRSA strains. […] Chain 310 has the best antibacterial activity against the MRSA strains with a MIC of 0.06 & 0.03 μg/ml along with Ertapenem (4 μg/ml) for both forms of L and D-peptides (Table 6).

S. aureus COL (MRSA) = system: S. aureus COL (MRSA)
Description: as §1, §2

S. aureus RN4220 = conditions: antibiotic sensitive strain S. aureus RN4220
Description: as §1, §2

Molecule | Minimum inhibitory concentration (MIC), S. aureus COL + 4 μg/ml Ertapenem [1] [µg/mL] | Minimum inhibitory concentration (MIC), S. aureus COL (MRSA) (S. aureus COL (MRSA)) [µg/mL] | Minimum inhibitory concentration (MIC), S. aureus RN4220 (S. aureus RN4220) [µg/mL]
KWIVWRWRFKR [Compound 201] | 0.5 | 64 | 64
RKWRAMIRLHAKRLRK [Compound 104] | 0.25 | >64 | >64
CC[C@@H](C)[C@@H](NC(=O)[C@@H](CCSC)NC(=O)[C@@H](C)NC(=O)[C@@H](CCCNC(=N)N)NC(=O)[C@@H](Cc1c[nH]c2ccccc12)NC(=O)[C@@H](CCCCN)NC(=O)[C@H](N)CCCNC(=N)N)C(=O)N[C@H](CCCNC(=N)N)C(=O)N[C@H](CC(C)C)C(=O)N[C@H](Cc1c[nH]cn1)C(=O)N[C@H](C)C(=O)N[C@H](CCCCN)C(=O)N[C@H](CCCNC(=N)N)C(=O)N[C@H](CC(C)C)C(=O)N[C@H](CCCNC(=N)N)C(=O)N[C@H](CCCCN)C(=O)O [104 D] (H-[dR][dK][dW][dR][dA][dM][dI][dR][dL][dH][dA][dK][dR][dL][dR][dK]-OH) | 4 | 32 | 64
RKWRAMIRLHAKWLRK [Compound 105] | 0.5 | >64 | >64
KRKWRWLFKKL [Compound 310] | 0.06 | >64 | >64
